Assay results: patent US20100137449A1, “SUBSTITUTED 1,3-CYCLOPENTADIONE MULTI-TARGET PROTEIN KINASE MODULATORS OF CANCER, ANGIOGENESIS AND THE INFLAMMATORY PATHWAYS ASSOCIATED THEREWITH” (METAPROTEOMICS, LLC, priority 2007, published 2010)

Legend:
Experiment in all cases: KinaseProfiler Assay
[1] = biological target: Abl(Y253F)(h) (Homo sapiens, UniProt P00519, Y253F)
[2] = biological target: Arg(m) (Mus musculus, UniProt Q4JIM5)
[3] = biological target: T1, CaMKIV(h) (Homo sapiens, UniProt Q16566)
T1 sequence (Q16566 1-473): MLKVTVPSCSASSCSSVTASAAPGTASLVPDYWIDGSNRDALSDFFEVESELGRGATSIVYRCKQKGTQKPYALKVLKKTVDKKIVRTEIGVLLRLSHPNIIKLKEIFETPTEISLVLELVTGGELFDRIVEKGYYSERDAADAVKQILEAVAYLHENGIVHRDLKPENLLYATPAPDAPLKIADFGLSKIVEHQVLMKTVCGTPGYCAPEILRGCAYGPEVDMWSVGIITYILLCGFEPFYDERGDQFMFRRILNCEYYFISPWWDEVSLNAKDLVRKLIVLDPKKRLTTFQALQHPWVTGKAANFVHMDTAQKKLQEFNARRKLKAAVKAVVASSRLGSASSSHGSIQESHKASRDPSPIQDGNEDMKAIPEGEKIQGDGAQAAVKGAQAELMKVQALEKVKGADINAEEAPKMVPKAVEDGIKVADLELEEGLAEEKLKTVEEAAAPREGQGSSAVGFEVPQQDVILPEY

[4] = biological target: Flt1(h) (Homo sapiens, UniProt P17948)
Sequence of Flt1(h) (P17948 27-1338): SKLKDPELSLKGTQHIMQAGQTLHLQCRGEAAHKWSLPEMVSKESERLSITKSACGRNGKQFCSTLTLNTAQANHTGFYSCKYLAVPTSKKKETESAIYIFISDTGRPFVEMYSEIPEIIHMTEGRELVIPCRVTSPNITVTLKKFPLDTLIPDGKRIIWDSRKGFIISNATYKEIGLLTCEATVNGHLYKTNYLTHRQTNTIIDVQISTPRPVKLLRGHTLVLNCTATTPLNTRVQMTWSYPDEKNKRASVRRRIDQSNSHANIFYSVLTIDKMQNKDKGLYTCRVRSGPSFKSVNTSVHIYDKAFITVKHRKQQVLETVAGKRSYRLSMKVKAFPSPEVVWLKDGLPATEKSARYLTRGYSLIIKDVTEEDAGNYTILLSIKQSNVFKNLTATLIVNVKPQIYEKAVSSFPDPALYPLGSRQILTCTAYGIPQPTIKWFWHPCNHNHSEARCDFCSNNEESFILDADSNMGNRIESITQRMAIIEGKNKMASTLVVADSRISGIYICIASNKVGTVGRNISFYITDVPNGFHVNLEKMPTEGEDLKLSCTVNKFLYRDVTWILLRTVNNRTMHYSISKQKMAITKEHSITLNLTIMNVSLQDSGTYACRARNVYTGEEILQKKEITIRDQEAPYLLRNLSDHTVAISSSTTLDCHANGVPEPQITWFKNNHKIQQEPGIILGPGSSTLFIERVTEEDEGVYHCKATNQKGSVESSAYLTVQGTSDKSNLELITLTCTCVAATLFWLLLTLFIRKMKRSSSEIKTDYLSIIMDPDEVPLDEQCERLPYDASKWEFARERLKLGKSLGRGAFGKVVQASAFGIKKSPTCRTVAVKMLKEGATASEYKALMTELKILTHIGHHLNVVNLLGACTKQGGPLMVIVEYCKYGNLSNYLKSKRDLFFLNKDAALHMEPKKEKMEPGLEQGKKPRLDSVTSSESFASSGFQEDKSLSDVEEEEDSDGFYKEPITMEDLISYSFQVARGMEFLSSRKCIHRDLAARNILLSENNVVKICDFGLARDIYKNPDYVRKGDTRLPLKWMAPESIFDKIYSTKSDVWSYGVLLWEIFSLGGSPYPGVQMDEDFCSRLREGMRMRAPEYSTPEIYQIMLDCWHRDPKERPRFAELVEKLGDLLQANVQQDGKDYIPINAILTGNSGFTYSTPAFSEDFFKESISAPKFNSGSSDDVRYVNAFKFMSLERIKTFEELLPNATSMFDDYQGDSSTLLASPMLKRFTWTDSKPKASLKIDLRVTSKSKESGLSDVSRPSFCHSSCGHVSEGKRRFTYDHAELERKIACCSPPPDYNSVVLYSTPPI

[5] = biological target: T2, MKK4(m) (Mus musculus, UniProt P47809)
T2 sequence (P47809 1-397): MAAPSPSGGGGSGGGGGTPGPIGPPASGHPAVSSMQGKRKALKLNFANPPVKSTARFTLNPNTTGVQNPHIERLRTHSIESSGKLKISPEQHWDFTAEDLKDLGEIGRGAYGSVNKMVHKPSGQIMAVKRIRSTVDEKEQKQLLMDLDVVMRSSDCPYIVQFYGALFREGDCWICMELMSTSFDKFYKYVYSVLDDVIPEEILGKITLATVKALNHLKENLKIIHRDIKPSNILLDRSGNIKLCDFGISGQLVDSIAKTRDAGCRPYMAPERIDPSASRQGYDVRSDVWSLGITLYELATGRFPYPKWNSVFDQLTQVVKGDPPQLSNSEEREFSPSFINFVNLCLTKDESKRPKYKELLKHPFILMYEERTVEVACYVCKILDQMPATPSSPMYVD

[6] = biological target: T3, NLK(h) (Homo sapiens, UniProt Q9UBE8)
T3 sequence (Q9UBE8 1-527): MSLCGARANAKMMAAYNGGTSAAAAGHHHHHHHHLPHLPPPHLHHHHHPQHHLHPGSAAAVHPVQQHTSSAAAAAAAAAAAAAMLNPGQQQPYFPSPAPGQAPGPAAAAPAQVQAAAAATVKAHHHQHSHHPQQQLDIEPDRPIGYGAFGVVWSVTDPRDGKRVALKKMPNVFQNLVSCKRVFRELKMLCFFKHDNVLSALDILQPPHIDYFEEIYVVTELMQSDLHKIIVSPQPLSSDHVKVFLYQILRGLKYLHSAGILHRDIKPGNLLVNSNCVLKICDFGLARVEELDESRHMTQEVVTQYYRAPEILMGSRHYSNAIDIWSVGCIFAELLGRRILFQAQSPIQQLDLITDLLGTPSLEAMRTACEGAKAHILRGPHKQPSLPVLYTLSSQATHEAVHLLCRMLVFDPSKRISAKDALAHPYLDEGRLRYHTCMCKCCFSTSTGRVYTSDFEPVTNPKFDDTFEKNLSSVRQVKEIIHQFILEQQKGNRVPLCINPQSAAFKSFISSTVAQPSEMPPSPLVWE

[7] = biological target: PDGFRβ(h) (Homo sapiens, UniProt P09619)
Sequence of PDGFRβ(h) (P09619 33-1106): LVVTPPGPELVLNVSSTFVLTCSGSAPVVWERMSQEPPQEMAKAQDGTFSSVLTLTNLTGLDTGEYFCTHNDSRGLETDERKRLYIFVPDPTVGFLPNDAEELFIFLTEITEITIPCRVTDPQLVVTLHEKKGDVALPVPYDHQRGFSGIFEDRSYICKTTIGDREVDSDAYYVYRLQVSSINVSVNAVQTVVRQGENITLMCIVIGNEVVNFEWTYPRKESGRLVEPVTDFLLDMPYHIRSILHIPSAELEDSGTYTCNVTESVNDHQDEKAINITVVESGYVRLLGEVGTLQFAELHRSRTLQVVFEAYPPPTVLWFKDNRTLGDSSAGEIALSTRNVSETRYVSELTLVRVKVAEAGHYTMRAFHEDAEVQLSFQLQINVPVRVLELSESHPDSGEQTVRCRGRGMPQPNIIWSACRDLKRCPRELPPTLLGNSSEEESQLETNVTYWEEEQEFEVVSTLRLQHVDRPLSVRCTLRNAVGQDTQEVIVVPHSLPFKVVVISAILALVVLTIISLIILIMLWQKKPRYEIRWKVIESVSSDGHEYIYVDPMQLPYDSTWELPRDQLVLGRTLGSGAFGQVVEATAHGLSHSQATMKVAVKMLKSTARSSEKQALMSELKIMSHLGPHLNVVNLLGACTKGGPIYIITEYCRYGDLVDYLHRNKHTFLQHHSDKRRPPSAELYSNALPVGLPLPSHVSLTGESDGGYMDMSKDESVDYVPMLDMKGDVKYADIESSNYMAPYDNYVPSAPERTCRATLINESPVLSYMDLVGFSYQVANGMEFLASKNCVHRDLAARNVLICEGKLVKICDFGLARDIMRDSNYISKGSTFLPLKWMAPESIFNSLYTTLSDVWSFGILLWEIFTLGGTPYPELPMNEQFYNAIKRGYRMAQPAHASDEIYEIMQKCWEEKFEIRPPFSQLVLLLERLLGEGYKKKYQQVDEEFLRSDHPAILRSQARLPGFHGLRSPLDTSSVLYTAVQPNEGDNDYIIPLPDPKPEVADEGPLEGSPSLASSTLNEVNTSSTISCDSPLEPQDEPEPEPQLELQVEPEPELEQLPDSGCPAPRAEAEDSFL

[8] = biological target: T4, PrKX(h) (Homo sapiens, UniProt P51817)
T4 sequence (P51817 1-358): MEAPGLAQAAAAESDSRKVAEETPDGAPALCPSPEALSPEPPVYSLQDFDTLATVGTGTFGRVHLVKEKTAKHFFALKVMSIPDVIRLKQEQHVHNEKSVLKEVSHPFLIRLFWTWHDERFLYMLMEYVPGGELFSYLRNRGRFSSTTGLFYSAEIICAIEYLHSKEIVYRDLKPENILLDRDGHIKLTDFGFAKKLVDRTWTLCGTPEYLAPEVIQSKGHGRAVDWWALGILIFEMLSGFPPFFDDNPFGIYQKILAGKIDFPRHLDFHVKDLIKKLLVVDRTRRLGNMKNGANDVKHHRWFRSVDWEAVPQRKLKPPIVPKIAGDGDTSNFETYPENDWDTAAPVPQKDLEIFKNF

[9] = biological target: Yes(h) (Homo sapiens, UniProt P07947)
Sequence of Yes(h) (P07947 whole entry): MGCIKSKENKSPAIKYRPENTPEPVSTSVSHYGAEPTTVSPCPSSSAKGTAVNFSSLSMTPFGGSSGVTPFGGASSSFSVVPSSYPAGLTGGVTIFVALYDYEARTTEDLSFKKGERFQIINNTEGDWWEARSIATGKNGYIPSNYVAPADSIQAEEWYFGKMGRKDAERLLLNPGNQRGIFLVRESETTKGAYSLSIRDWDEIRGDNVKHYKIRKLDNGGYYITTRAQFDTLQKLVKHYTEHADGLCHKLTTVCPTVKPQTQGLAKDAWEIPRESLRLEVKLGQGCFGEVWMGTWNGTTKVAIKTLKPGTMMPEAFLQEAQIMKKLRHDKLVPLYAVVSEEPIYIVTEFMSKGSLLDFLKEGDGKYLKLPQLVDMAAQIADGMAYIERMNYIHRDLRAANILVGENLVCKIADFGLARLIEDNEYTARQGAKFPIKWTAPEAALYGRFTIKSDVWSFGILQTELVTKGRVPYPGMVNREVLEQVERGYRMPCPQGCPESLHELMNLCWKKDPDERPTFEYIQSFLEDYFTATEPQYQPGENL

Sequence of Arg(m) (Q4JIM5 whole entry): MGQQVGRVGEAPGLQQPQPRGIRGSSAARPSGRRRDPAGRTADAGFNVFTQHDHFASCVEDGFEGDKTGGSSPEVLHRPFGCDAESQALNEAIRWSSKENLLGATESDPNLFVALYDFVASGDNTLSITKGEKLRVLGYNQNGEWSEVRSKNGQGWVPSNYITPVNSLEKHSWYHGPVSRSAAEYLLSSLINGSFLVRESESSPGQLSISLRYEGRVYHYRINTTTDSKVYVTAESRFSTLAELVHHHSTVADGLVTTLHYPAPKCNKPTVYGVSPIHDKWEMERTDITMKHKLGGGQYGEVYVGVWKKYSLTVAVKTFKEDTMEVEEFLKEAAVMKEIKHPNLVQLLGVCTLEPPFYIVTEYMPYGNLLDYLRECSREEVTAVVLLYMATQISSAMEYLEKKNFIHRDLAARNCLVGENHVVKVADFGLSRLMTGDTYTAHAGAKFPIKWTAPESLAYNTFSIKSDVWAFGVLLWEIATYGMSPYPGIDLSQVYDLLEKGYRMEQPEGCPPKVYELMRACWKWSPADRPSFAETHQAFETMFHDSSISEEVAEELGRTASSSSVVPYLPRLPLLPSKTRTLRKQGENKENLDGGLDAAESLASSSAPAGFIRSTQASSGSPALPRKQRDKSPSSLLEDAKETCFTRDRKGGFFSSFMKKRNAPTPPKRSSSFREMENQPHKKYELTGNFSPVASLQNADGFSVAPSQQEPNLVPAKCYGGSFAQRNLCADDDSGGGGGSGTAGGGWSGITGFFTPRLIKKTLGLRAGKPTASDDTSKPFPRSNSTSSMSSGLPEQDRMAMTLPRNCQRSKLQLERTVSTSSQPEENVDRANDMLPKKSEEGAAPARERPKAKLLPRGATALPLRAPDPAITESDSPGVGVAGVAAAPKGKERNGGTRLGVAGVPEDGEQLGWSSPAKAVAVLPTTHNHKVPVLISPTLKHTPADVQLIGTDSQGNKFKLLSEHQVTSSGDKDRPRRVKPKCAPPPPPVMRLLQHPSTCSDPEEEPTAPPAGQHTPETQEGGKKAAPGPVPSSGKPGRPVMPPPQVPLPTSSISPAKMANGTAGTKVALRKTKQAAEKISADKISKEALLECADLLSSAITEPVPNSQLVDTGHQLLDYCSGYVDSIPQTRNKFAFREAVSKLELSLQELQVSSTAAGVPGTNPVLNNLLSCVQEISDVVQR

## CC(C)CCC(=O)[C@]1(O)C(O)=C(C(=O)C(C)C)C(=O)[C@H]1CCC(C)C [TH2, tetrahydroiso-cohumulone]
[1]; 1 μg/ml
  kinase inhibition: 117% of control
[1]; 5 μg/ml
  kinase inhibition: 100% of control
[1]; 25 μg/ml
  kinase inhibition: 83% of control
[1]; 50 μg/ml
  kinase inhibition: 65% of control
[1]; 100 μg/ml
  kinase inhibition: 58% of control
[2]; 1 μg/ml
  kinase inhibition: 100% of control
[2]; 5 μg/ml
  kinase inhibition: 101% of control
[2]; 25 μg/ml
  kinase inhibition: 103% of control
[2]; 50 μg/ml
  kinase inhibition: 88% of control
[2]; 100 μg/ml
  kinase inhibition: 62% of control
[3]; 1 μg/ml
  kinase inhibition: 117% of control
[3]; 5 μg/ml
  kinase inhibition: 126% of control
[3]; 25 μg/ml
  kinase inhibition: 86% of control
[3]; 50 μg/ml
  kinase inhibition: 69% of control
[3]; 100 μg/ml
  kinase inhibition: 52% of control
[4]; 1 μg/ml
  kinase inhibition: 102% of control
[4]; 5 μg/ml
  kinase inhibition: 97% of control
[4]; 25 μg/ml
  kinase inhibition: 103% of control
[4]; 50 μg/ml
  kinase inhibition: 102% of control
[4]; 100 μg/ml
  kinase inhibition: 98% of control
[5]; 1 μg/ml
  kinase inhibition: 120% of control
[5]; 5 μg/ml
  kinase inhibition: 127% of control
[5]; 25 μg/ml
  kinase inhibition: 91% of control
[5]; 50 μg/ml
  kinase inhibition: 95% of control
[5]; 100 μg/ml
  kinase inhibition: 85% of control
[6]; 1 μg/ml
  kinase inhibition: 105% of control
[6]; 5 μg/ml
  kinase inhibition: 104% of control
[6]; 25 μg/ml
  kinase inhibition: 98% of control
[6]; 50 μg/ml
  kinase inhibition: 96% of control
[6]; 100 μg/ml
  kinase inhibition: 85% of control
[7]; 1 μg/ml
  kinase inhibition: 111% of control
[7]; 5 μg/ml
  kinase inhibition: 110% of control
[7]; 25 μg/ml
  kinase inhibition: 53% of control
[7]; 50 μg/ml
  kinase inhibition: 50% of control
[7]; 100 μg/ml
  kinase inhibition: 44% of control
[8]; 1 μg/ml
  kinase inhibition: 101% of control
[8]; 5 μg/ml
  kinase inhibition: 103% of control
[8]; 25 μg/ml
  kinase inhibition: 98% of control
[8]; 50 μg/ml
  kinase inhibition: 88% of control
[8]; 100 μg/ml
  kinase inhibition: 66% of control
[9]; 1 μg/ml
  kinase inhibition: 92% of control
[9]; 5 μg/ml
  kinase inhibition: 81% of control
[9]; 25 μg/ml
  kinase inhibition: 116% of control
[9]; 50 μg/ml
  kinase inhibition: 111% of control
[9]; 100 μg/ml
  kinase inhibition: 104% of control
